{"source": "patent US6416965B2", "about": "“Screening methods for presqualene disphosphate analogs” (Brigham and Women's Hospital, priority 1997, dated 2002)", "key": {"neutrophils [1]": {"test_system": "neutrophils", "assay": "fMLP-stimulated intracellular calcium mobilization in FURA-2 loaded neutrophils", "format": "cell-based, human", "settings": "PSDP 1 μM, 5 min 37° C.; 1 nM fMLP; EDTA 5 mM", "method": "Inositol trisphosphate is known to be an important intracellular mediator of calcium mobilization from intracellular stores, a critical event in cellular activation (Exton, JH, Annual Review of Pharmacology and Toxicology 1996; 36:481). In order to determine the functional importance of the PSDP-mediated reduction in IP3 levels, fMLP-stimulated intracellular calcium mobilization in the presence of polyisoprenyl phosphates was measured. FURA-2 (1 μM) loaded neutrophils (10×10^6/2 ml) in the presence of EDTA (5 mM) were exposed (5 min, 37° C.) to PSDP (10−^5-10−^6 M) or EtOH (0.1%), followed by 1 nM fMLP. […] This inhibition was concentration dependent FIG. 7 and significant (n=3, mean±SEM, *P<0.05 by Student's t-test)."}, "neutrophil sonicates": {"test_system": "neutrophil sonicates", "settings": "Levy et al., Nature 1997; cited from earlier work"}, "neutrophils [2]": {"test_system": "neutrophils", "assay": "Neutrophil homotypic adhesion (aggregation, light transmittance)", "format": "cell-based, human", "method": "(§1) Neutrophils (10^7/500 μl) were electroporated (1.65 kV/cm, 250 μF, Ω∞, Invitrogen Electroporator VI) at 0° C. in the presence of 10−^9-10−^6 M compound VI, VIII, FDP, FMP, squalene or vehicle (ethanol 0.2%). After electroporation, cells, in cytochrome c (0.7 mg/ml), were exposed (10 minutes, 37° C.) to either cytochalasin b (5 μg/mL) and FMLP (10^−7 M)(a) or PMA ((10^−7 M)(b) and supernatants monitored at […]. Electroporation gave a 49.9% reduction in FMLP-stimulated NADPH oxidase compared to naive cells. Values (FIGS. 4a and 4b) represent the mean±SEM for n≧3, d≧6. For adhesion (FIGS. 4c and 4d), changes in light transmittance were monitored (as in Fiore, S., Nicolaou, K. C., Caulfield, T., Kataoka, H. & Serhan, C. N. Biochem. J. 266, 25-31 (1990), the teachings of which are incorporated herein by reference) after addition of compounds VI, VIII (1.6 μM) or vehicle (0.5 min) and FMLP (0.5-5 μM) (2.5 min). Cell viability remained>99%. Values represent the mean±SEM for n=3, d=9. 1,4,5-inositol-triphosphate levels were determined (Amersham) in fresh PMN (10^7 cells) exposed (5 minutes, 37° C.) to compound VI, compound VIII (1 μM) or vehicle and stimulated with FMLP (10^−7M, 37° C.) (as in FIG. 4e). % Inhibition after 10 second exposure to FMLP is reported as mean±SEM for n=4, d≧8. *p <0.05 in Student's paired t-test compared with control, while “NS” indicates no significant change compared to incubations in the presence of vehicle (ethanol 0.2%) alone. Stereochemistry of PSDP and PSMP (FIG. 4f) were assigned by routine methods (Poulter, C. D. and Rilling, H. C. Acc. Chem. Res. 11, 307-313, (1978), the teachings of which are hereby incorporated by reference)."}, "human neutrophils": {"test_system": "human neutrophils", "assay": "FMLP-stimulated 1,4,5-inositol triphosphate (IP3) formation as surrogate for phospholipase C activity", "format": "cell-based", "settings": "for inhibition of FMLP-triggered IP3 formation: compound 1 μM, 5 min 37° C., FMLP 100 nM, 10 seconds", "method": "as §1\nIn addition to PLD, phospholipase C plays a critical role in intracellular signaling via the hydrolysis of inositol lipids to diacyl glyceride (DAG) and inositol trisphosphate (IP3) to effect a cascade of cellular events in response to pro-inflammatory stimuli. DAG activates protein kinases and is converted, in part, to phosphatidic acid by DAG kinase. Therefore, PLC together with DAG kinase provides a second major source of phosphatidic acid in human neutrophils (Agwu, DE, et al., Journal of Clinical Investigation 1991; 88:531). […] To this end, the impact of PSDP on fMLP-stimulated IP3 formation as a surrogate for phospholipase C activity was examined (FIG. 4e).\nAmersham's D-myo-inositol 1,4,5-trisphosphate (IP3) [^3H] assay was used for this procedure (Amersham code TRK 1000, including product assay, the contents of which are incorporated herein by reference). The assay is based on procedures developed by Takata S. et al. J. Clin. Invest. 93:499 (1994) and Dillon S. B. et al. J. Biol. Chem. 262:11546 (1987), the contents of which are incorporated herein by reference in their entirety. [drawing 24] […]"}}}
{"smiles": "CC(C)=CCC/C(C)=C/CC/C(C)=C/C1C(COP(=O)(O)OP(=O)(O)O)C1(C)CC/C=C(\\C)CCC=C(C)C", "note": "(stereo in doubt) [Compound VI, presqualene diphosphate]", "values": [{"measurement": "inhibition of fMLP-stimulated [Ca2+]i mobilization", "setting": "neutrophils [1]", "value": "inhibition"}, {"measurement": "inhibition of phosphatidate mediated superoxide anion generation in human neutrophil sonicates", "setting": "neutrophil sonicates", "value": "inhibited"}, {"measurement": "stimulation of adhesion by the compound alone", "setting": "neutrophils [2]; no agonist", "value": "neither compound VI nor VIII alone stimulated"}, {"measurement": "inhibition of FMLP-stimulated homotypic adhesion", "setting": "neutrophils [2]; μM levels", "value": "inhibited"}, {"measurement": "inhibition of the aggregatory response to FMLP (homotypic adhesion)", "setting": "neutrophils [2]; μM levels (1.6 μM), FMLP 0.5-5 μM, intact cells, p<0.001", "value": 63, "unit": "%"}, {"measurement": "inhibition of FMLP-triggered IP3 formation", "setting": "human neutrophils", "value": 56, "unit": "%"}, {"measurement": "inhibition of FMLP-triggered IP3 formation", "setting": "human neutrophils; listed as PSDP", "value": "> 50", "unit": "%"}, {"measurement": "inhibition of 1,4,5-inositol-triphosphate formation", "setting": "human neutrophils; nM-μM amounts", "value": "inhibited"}]}
